Test results from US7557212B2, “Tricyclic derivatives as LTD4 antagonists” (Laboratorios Almirall, S.A., priority 2002, dated 2009).
Where two headings read alike, the source gives them in different places.

What was measured:
[1] = target: T1, CysLT1 (Cavia porcellus, UniProt Q2NNR5); assay: CysLT1/LTD4 radioligand binding assay ([3H]LTD4, guinea-pig lung membrane preparation); conditions: 300 pM [3H]LTD4, guinea-pig lung membranes, 30 minutes at room temperature
T1 construct: The assay mixture also contained 200 μg of lung membrane protein/plate well; from tissue; host or cells: guinea-pig lung (primarily parenchyma) membrane preparation
T1 sequence (Q2NNR5 1-340): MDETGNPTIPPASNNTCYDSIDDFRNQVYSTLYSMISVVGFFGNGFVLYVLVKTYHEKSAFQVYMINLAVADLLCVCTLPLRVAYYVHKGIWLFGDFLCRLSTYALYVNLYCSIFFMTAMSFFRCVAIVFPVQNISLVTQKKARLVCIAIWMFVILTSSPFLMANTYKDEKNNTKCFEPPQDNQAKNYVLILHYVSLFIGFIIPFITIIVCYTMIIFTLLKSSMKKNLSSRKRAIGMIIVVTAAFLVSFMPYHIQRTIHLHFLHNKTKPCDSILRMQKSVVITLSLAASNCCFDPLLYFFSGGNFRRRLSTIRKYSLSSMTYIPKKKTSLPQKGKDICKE
Experimental: CysLT1/LTD4 Binding Protocol (Guinea-Pig Lung Membrane Preparation)
Guinea pigs were sacrificed and lung tissues removed. Connective tissue, trachea, large blood vessels and major airways were removed and the remaining tissue, primarily parenchyma, was homogenised in 20 volumes of 10 mM TRIS pH 7.4 containing 0.25M sucrose, 0.25 mM phenylmethylsulfonyl fluoride, 155 μg/ml benzenecarboximide, 5 μg/ml soybean trypsin inhibitor and 100 μg/ml bacitracin (Work Buffer), in a ULTRA-TURRAX T25 at 13500 rpm. The homogenate was centrifuged at 1000×g for 10 minutes at 4° C. The resulting supernatant was filtered through a sterile cloth and further centrifuged for 15 minutes at 40000×g at 4° C. The pellet obtained was resuspended in 10 volumes of Work Buffer, homogenised using a Potter (1100 rpm) and subjected to a final centrifugation step for 30 minutes at 40000×g at 4° C. This membrane pellet was finally resuspended in 10 volumes of 10 mM TRIS and 10 mM PIPES pH 7.4, and homogenised using a Potter (1100 rpm). Protein concentration was determined by the BRADFORD method using the Bio-Rad Protein Assay kit with BSA as standard. Protein aliquots were kept frozen at −80° C.
Radioligand Binding Assay
[^3H]LTD4 (136.9 Ci/mmol) was obtained from NEN.
The assays were performed in a final volume of 250 μl of 10 mM PIPES pH 7.5 containing 10 mM CaCl2, 10 mM MgCl2, 50 mM NaCl, 2 mM L-Cysteine, 2 mM Glycine and 300 pM [^3H]LTD4. The assay mixture also contained 200 μg of lung membrane protein/plate well. Non-specific binding was determined in the presence of zafirlukast 10 μM.
The assays were performed directly on Millipore Multiscreen GF/B plates, presoaked with 200 μl/well of assay buffer at room temperature. Incubations were conducted for 30 minutes at room temperature with continuous shaking. Separation of bound and free [^3H]LTD4 was done by filtration through the plates that were then washed three times with 175 μl/wash of 10 mM TRIS containing 100 mM NaCl at 4° C. The plates were dried and counted in a TRILUX Microbeta Liquid Scintillation Counter of Wallac.

[2] = test system: LTD4-induced airway microvascular leakage; assay: LTD4-induced microvascular permeability in guinea-pigs (Evans blue extravasation in trachea); assay type: in vivo, guinea pig; conditions: oral gavage 4 hours before, LTD4 1 μg/kg i.v., male Dunkin-Hartley guinea pigs
Experimental: LTD4-Induced Microvascular Permeability in Guinea-Pigs
Male Dunkin-Hartey guinea pigs (450-500 g) fasted for 18 hours were administered the test compounds by oral gavage 4 hours before being anesthetized with urethane (15%, i.p. 10 ml/kg). The left jugular vein was canulated under anaesthesia. Five minutes afterwards, Evans blue dye (40 mg/Kg) was injected intravenously. After five more minutes, LTD4 was administered (1 μg/kg, i.v.) to the animals in order to induce airway microvascular leakage. After yet another period of 5 minutes, animals were exsanguinated by cutting the right atria and the vascular bed was rinsed by perfusing 50 ml of saline solution through the left ventricle at a pressure of 150 cmH2O. Then the trachea was excised and incubated in formamide for 20 hours at 55° C. to extract the Evans blue dye from the tissue. Microvascular permeability was determined by light spectrophotometry at 620 nm of the extravasated dye.

[3] = Cavia porcellus, read-out: ED50

Row | SMILES | IC50 [1] [nM] | ED50 [2, 3] [mg/kg] | ED50 [2] [mg/kg]
1 | O=C(O)CCSC1c2cc(CCc3ccc4cc(F)c(F)cc4n3)ccc2OCc2cccnc21 (stereo not drawn) [Example 28, 3-{7-[2-(6,7-Difluoro-quinolin-2-yl)-ethyl]-5,11-dihydro-10-oxa-4-aza-dibenzo[a,d]cyclohepten-5-ylsulfanyl}-propionic Acid] | 2 | – | –
2 | O=C(O)CSC1c2cc(/C=C/c3ccc4cc(F)c(F)cc4n3)ccc2OCc2ncccc21 (stereo not drawn) [Example 12, {(7-[(E)-2-(6,7-difluoroquinolin-2-yl)vinyl]-5,11-dihydro[1]benzoxepino[3,4-b]pyrindin-5-yl)thio}acetic Acid] | 0.35 | – | –
3 | O=C(O)CCSC1c2cc(OCc3ccc4cc(F)c(Cl)cc4n3)ccc2CCc2ncccc21 (single isomer, unassigned; (+)) [Example 43, (+) 3-[7-(7-Chloro-6-fluoro-quinolin-2-ylmethoxy)-10,11-dihydro-5H-benzo[4,5]cyclohepta[1,2-b]pyridin-5-ylsulfanyl]-propionic Acid] | 3.4 | – | –
4 | O=C(O)CC1(CSC2c3cc(/C=C/c4ccc5cc(F)c(F)cc5n4)ccc3C=Cc3ncccc32)CC1 (stereo not drawn) [Example 40, (1-{7-[2-(6,7-Difluoro-quinolin-2-yl)-vinyl]-5H-benzo[4,5]cyclohepta[1,2-b]pyridin-5-ylsulfanylmethyl}-cyclopropyl) Acetic Acid] | 0.5 | – | –
5 | CC(C)(CC(=O)O)SC1c2cc(OCc3ccc4cc(F)c(F)cc4n3)ccc2OCc2ncccc21 (stereo not drawn) [Example 9, 3-{(7-[(6,7-difluoroquinolin-2-yl)methoxy]-5,11-dihydro[1]benzoxepino[3,4-b]pyrindin-5-yl)thio}-3methylbutanoic Acid] | 0.59 | 0.018 | –
6 | O=C(O)CCSC1c2cc(OCc3ccc4cc(F)c(F)cc4n3)ccc2CCc2ncccc21 (stereo not drawn) [Example 24, 3-[7-(6,7-difluoro-quinolin-2-ylmethoxy)-10,11-dihydro-5H-benzo[4,5]cyclohepta[1,2-b]pyridin-5-ylsulfanyl]-propionic Acid] | 0.6 | 0.01 | –
7 | O=C(O)CC1(CSC2c3cc(OCc4ccc5cc(F)c(F)cc5n4)ccc3OCc3ncccc32)CC1 (stereo not drawn) [Example 7, 1-{[(7-[(6,7-difluoroquinolin-2-yl)methoxy]-5,11-dihydro[1]benzoxepino[3,4-b]pyrindin-5-yl)thio]methyl}cyclopropyl Acetic Acid] | 0.14 | 0.013 | –
8 | O=C(O)CSC1c2cc(OCc3ccc4cc(F)c(Cl)cc4n3)ccc2OCc2ncccc21 (stereo not drawn) [Example 3, {(7-[(7-chloro,6-fluoro-quinolin-2-yl)methoxy]-5,11-dihydro[1]benzoxepino[3,4-b]pyrindin-5-yl)thio}acetic Acid] | 0.27 | – | –
9 | O=C(O)CCSC1c2cc(OCc3ccc4cc(F)c(F)cc4n3)ccc2C=Cc2ncccc21 (stereo not drawn) [Example 33, 3-[7-(6,7-Difluoro-quinolin-2-ylmethoxy)-5H-benzo[4,5]cyclohepta[1,2-b]pyridin-5-ylsulfanyl]-propionic Acid] | 0.5 | – | –
10 | CC(C)(O)c1ccccc1CC[C@@H](SCC1(CC(=O)O)CC1)c1cccc(/C=C/c2ccc3ccc(Cl)cc3n2)c1 [Compound B, reference compound] | – | 0.008 | –
11 | O=C(O)CCSC1c2cc(OCc3ccc4cc(F)c(F)cc4n3)ccc2OCc2ncccc21 (single isomer, unassigned; (+)) [Example 34, (+)-3-[7-(6,7-Difluoro-quinolin-2-ylmethoxy)-5,11-dihydro-10-oxa-1-aza-dibenzo[a,d]cyclohepten-5-ylsulfanyl]-propionic Acid] | 1.2 | 0.018 | –
12 | O=C(O)CCSC1c2cc(OCc3ccc4cc(F)c(F)cc4n3)ccc2OCc2ncccc21 (stereo not drawn) [Example 1, 3-{(7-[(6,7-difluoroquinolin-2-yl)methoxy]-5,11-dihydro[1]benzoxepino[3,4-b]pyridin-5-yl)thio}propanoic Acid] | 0.38 | 0.009 | –
13 | O=C(O)CC1(CSC2c3cc(/C=C/c4ccc5cc(F)c(F)cc5n4)ccc3OCc3ncccc32)CC1 (stereo not drawn) [Example 11, 1-{[(7-[(E)-2-(6,7-difluoroquinolin-2-yl)vinyl]-5,11-dihydro[1]benzoxepino[3,4-b]pyrindin-5-yl)thio]methyl}cyclopropyl Acetic] | 0.27 | 0.0013 | –
14 | O=C(O)CCSC1c2ccncc2CCc2ccc(OCc3ccc4cc(F)c(F)cc4n3)cc21 (stereo not drawn) [Example 25, 3-[7-(6,7-Difluoro-quinolin-2-ylmethoxy)-10,11-dihydro-5H-benzo[4,5]cyclohepta[1,2-c]pyridin-5-ylsulfanyl]-propionic Acid] | 0.67 | – | –
15 | O=C(O)CC1(CSC2c3cc(OCc4ccc5cc(F)c(F)cc5n4)ccc3OCc3cccnc32)CC1 (stereo not drawn) [Example 18, 1-{[(9-[(6,7-difluoroquinolin-2-yl)methoxy]-5,11-dihydro[1]benzoxepino[4,3-b]pyrindin-11-yl)thio]methyl}cyclopropyl Acetic Acid] | 0.33 | – | –
16 | O=C(O)CCSC1c2cc(OCc3ccc4cc(F)c(Cl)cc4n3)ccc2CCc2ncccc21 (stereo not drawn) [Example 23, 3-[7-(7-Chloro-6-fluoro-quinolin-2-ylmethoxy)-10,11-dihydro-5H-benzo[4,5]cyclohepta[1,2-b]pyridin-5-ylsulfanyl]-propionic Acid] | 0.34 | 0.002 | –
17 | O=C(O)CCSC1c2cc(OCc3ccc4cc(F)c(F)cc4n3)ccc2OCc2ncccc21 (single isomer, unassigned; (-)) [Example 35, (−)-3-[7-(6,7-Difluoro-quinolin-2-ylmethoxy)-5,11-dihydro-10-oxa-1-aza-dibenzo[a,d]cyclohepten-5-ylsulfanyl]-propionic Acid] | 0.35 | – | 0.009
18 | CC(C)(CSC1c2cc(OCc3ccc4cc(F)c(F)cc4n3)ccc2OCc2ncccc21)C(=O)O (stereo not drawn) [Example 8, 3-{(7-[(6,7-difluoroquinolin-2-yl)methoxy]-5,11-dihydro[1]benzoxepino[3,4-b]pyrindin-5-yl)thio}-2,2-dimethylpropanoic Acid] | 0.5 | – | –
19 | O=C(O)CCSC1c2ccccc2COc2ccc(OCc3ccc4cc(F)c(Cl)cc4n3)cc21 (stereo not drawn) [Compound A, reference compound] | 0.51 | – | 0.010
20 | O=C(O)CCSC1c2cc(OCc3ccc4cc(F)c(Cl)cc4n3)ccc2OCc2ncccc21 (stereo not drawn) [Example 4, 3-{(7-[(7-chloro,6-fluoro-quinolin-2-yl)methoxy]-5,11-dihydro[1]benzoxepino[3,4-b]pyrindin-5-yl)thio}propanoic Acid] | 0.28 | 0.03 | –
